Test results reported in ChEMBL document CHEMBL5113401, “Novel 1,3,4-oxadiazole chalcogen analogues: Synthesis and cytotoxic activity” (Eur J Med Chem, 2022).
Activity calls are given as the source filed them. The calls are words filed in the database; no cut-off is given here.

Legend:
HeLa [1] = test: Induction of cell cycle arrest in human HeLa cells assessed as accumulation of cells at G2/M phase at 1 uM incubated for 12 hrs by FACS flow cytometry analysis (reference value: 12.66 %); format: functional
PC-3 [2] = test: Induction of cell cycle arrest in human PC-3 cells assessed as accumulation of cells at G2/M phase at 1 uM incubated for 12 hrs by FACS flow cytometry analysis (reference value: 20.74 +/- 1.95 %); format: functional
PC-3 [3] = test: Induction of cell cycle arrest in human PC-3 cells assessed as accumulation of cells at S phase at 1 uM incubated for 12 hrs by FACS flow cytometry analysis (reference value: 35.06 +/- 1.36 %); format: functional
PC-3 [4] = test: Induction of cell cycle arrest in human PC-3 cells assessed as accumulation of cells at S phase at 1 uM incubated for 6 hrs by FACS flow cytometry analysis (reference value: 35.06 +/- 1.85 %); format: functional
Tubulin (Homo sapiens) [5] = molecular target: T1, Tubulin (Homo sapiens) (UniProt P68371+Q9H4B7+P0DPH7+P68366+Q13509+Q71U36+P04350+Q3ZCM7+P07437+P68363+Q9BQE3+Q6PEY2+Q13885+Q9BVA1+Q9BUF5); test: Inhibition of tubulin polymerization in human HeLa cells assessed as irregular cell morphology at 0.5 uM incubated for 6 hrs by DAPI staining based fluorescence microscopic analysis
HeLa [6] = test: Induction of apoptosis in human HeLa cells assessed as viable cells at 1 uM incubated for 24 hrs by Annexin V-FITC/7-AAD staining based flow cytometric analysis (reference value: 85.6 +/- 1.061%); format: functional; details: read-out: Activity
HeLa [7] = test: Induction of cell cycle arrest in human HeLa cells assessed as accumulation of cells at G2/M phase at 1 uM incubated for 18 hrs by FACS flow cytometry analysis (reference value: 12.66 +/- 0.92 %); format: functional
HeLa [8] = test: Induction of apoptosis in human HeLa cells assessed as dead cells at 1 uM incubated for 24 hrs by Annexin V-FITC/7-AAD staining based flow cytometric analysis (reference value: 0.6 +/- 0.707 %); format: functional
NB1 = test: Cytotoxicity against human NB1 cells immortalized with hTERT plasmid assessed as reduction in cell viability at 1 to 2 uM incubated for 48 hrs by XTT assay; format: toxicity, cell-based; details: nb1, 48 h, dose 1-2 µM
HeLa [9] = test: Induction of cell cycle arrest in human HeLa cells assessed as accumulation of cells at S phase at 1 uM incubated for 6 hrs by FACS flow cytometry analysis (reference value: 17.41 +/- 0.96 %); format: functional
Tubulin (Homo sapiens) [10] = molecular target: T1, Tubulin (Homo sapiens); test: Inhibition of tubulin polymerization in human HeLa cells assessed as abnormal microtubule network at 0.5 uM incubated for 6 hrs by DAPI staining based fluorescence microscopic analysis; format: cell-based
HeLa [11] = test: Induction of cell cycle arrest in human HeLa cells assessed as accumulation of cells at S phase at 1 uM incubated for 18 hrs by FACS flow cytometry analysis (reference value: 17.41 +/- 1.16 %); format: functional
HeLa [12] = test: Induction of apoptosis in human HeLa cells assessed as early apoptotic cells at 1 uM incubated for 24 hrs by Annexin V-FITC/7-AAD staining based flow cytometric analysis (reference value: 2.7 +/- 0.424 %); format: functional
PC-3 [13] = test: Induction of cell cycle arrest in human PC-3 cells assessed as accumulation of cells at G1 phase at 1 uM incubated for 6 hrs by FACS flow cytometry analysis (reference value: 44.2 +/- 2.21 %); format: functional
HeLa [14] = test: Induction of cell cycle arrest in human HeLa cells assessed as accumulation of cells at S phase at 1 uM incubated for 12 hrs by FACS flow cytometry analysis (reference value: 17.41 %); format: functional
HeLa [15] = test: Antiproliferative activity against human HeLa cells assessed as inhibition of cell growth incubated for 48 hrs by XTT assay; format: functional, cell-based
PC-3 [16] = test: Induction of cell cycle arrest in human PC-3 cells assessed as accumulation of cells at G2/M phase at 1 uM incubated for 6 hrs by FACS flow cytometry analysis (reference value: 20.74 +/- 1.93 %); format: functional
PC-3 [17] = test: Inhibition of colony formation in human PC-3 cells at IC50 incubated for 2 weeks with culture medium replacement for every 3 days by crystal violet staining based analysis; format: functional, cell-based
PC-3 [18] = test: Induction of cell cycle arrest in human PC-3 cells assessed as accumulation of cells at S phase at 1 uM incubated for 18 hrs by FACS flow cytometry analysis (reference value: 35.06 %); format: functional
HeLa [19] = test: Induction of cell cycle arrest in human HeLa cells assessed as accumulation of cells at G1 phase at 1 uM incubated for 12 hrs by FACS flow cytometry analysis (reference value: 69.94 %); format: functional
PC-3 [20] = test: Induction of cell cycle arrest in human PC-3 cells assessed as accumulation of cells at G1 phase at 1 uM incubated for 18 hrs by FACS flow cytometry analysis (reference value: 44.2 %); format: functional
HFF-1 = test: Cytotoxicity against HFF-1 cells assessed as reduction in cell viability at 1 to 2 uM incubated for 48 hrs by XTT assay; format: toxicity, cell-based; details: human, hff-1, 48 h, dose 1-2 µM
Tubulin (Homo sapiens) [21] = molecular target: T1, Tubulin (Homo sapiens); test: Inhibition of tubulin polymerization in human HeLa cells assessed as aberrations in mitotic spindle and nucleus at 0.5 uM incubated for 6 hrs by DAPI staining based fluorescence microscopic analysis; format: cell-based
HeLa [22] = test: Induction of apoptosis in human HeLa cells assessed as late apoptotic cells at 1 uM incubated for 24 hrs by Annexin V-FITC/7-AAD staining based flow cytometric analysis (reference value: 11.1 +/- 0.778 %); format: functional
HeLa [23] = test: Inhibition of colony formation in human HeLa cells at IC50 incubated for 2 weeks with culture medium replacement for every 3 days by crystal violet staining based analysis; format: functional, cell-based
PC-3 [24] = test: Induction of cell cycle arrest in human PC-3 cells assessed as accumulation of cells at G2/M phase at 1 uM incubated for 18 hrs by FACS flow cytometry analysis (reference value: 20.74 %); format: functional
HeLa [25] = test: Induction of cell cycle arrest in human HeLa cells assessed as accumulation of cells at G2/M phase at 1 uM incubated for 6 hrs by FACS flow cytometry analysis (reference value: 12.66 +/- 0.88 %); format: functional
PC-3 [26] = test: Antiproliferative activity against human PC-3 cells assessed as inhibition of cell growth incubated for 48 hrs by XTT assay; format: functional, cell-based; details: PC-3, 48 h
HeLa [27] = test: Induction of cell cycle arrest in human HeLa cells assessed as accumulation of cells at G1 phase at 1 uM incubated for 18 hrs by FACS flow cytometry analysis (reference value: 69.94 +/- 1.25 %); format: functional
PC-3 [28] = test: Induction of cell cycle arrest in human PC-3 cells assessed as accumulation of cells at G1 phase at 1 uM incubated for 12 hrs by FACS flow cytometry analysis (reference value: 44.2 +/- 2.01 %); format: functional
HeLa [29] = test: Induction of cell cycle arrest in human HeLa cells assessed as accumulation of cells at G1 phase at 1 uM incubated for 6 hrs by FACS flow cytometry analysis (reference value: 69.94 +/- 1.71 %); format: functional
MCF7 = test: Antiproliferative activity against human MCF7 cells assessed as inhibition of cell growth incubated for 48 hrs by XTT assay; format: functional, cell-based; details: MCF7, 48 h

With `Cc1[nH]c2c(c1-c1nnc(-c3ccccc3)o1)Cc1ccccc1-2` the Activity (HeLa [1]) was 41.41%, the Activity (PC-3 [2]) was 81.52% and the Activity (PC-3 [3]) was 18.48%. For the same compound, the Activity (PC-3 [4]) was 53.05%, the inhibition (Tubulin (Homo sapiens) [5]) was “Active” and the viability at 1 µM (HeLa [6]) was 62.2%. For the same compound, the Activity (HeLa [7]) was 90.18%, the Activity (HeLa [8]) was 6.4% and the Activity (NB1) was “Non-Toxic”. For the same compound, the Activity (HeLa [9]) was 63.32%, the inhibition (Tubulin (Homo sapiens) [10]) was “Active” and the Activity (HeLa [11]) was 8.43%. The Activity (HeLa [12]) was 2.9%, the Activity (PC-3 [13]) was 8.34% and the Activity (HeLa [14]) was 55.05%. The IC50 (HeLa [15]) was 68 nM, the Activity (PC-3 [16]) was 38.61% and the inhibition (PC-3 [17]) was “Active”. For the same compound, the Activity (PC-3 [18]) was 5.86%, the Activity (HeLa [19]) was 3.54% and the Activity (PC-3 [20]) was 1.71%. The Activity (HFF-1) was “Non-Toxic”, the inhibition (Tubulin (Homo sapiens) [21]) was “Active” and the Activity (HeLa [22]) was 28.5%. For the same compound, the inhibition (HeLa [23]) was “Active”, the Activity (PC-3 [24]) was 92.97% and the Activity (HeLa [25]) was 20.86%. The IC50 (PC-3 [26]) was 1660 nM, the Activity (HeLa [27]) was 1.48% and the Activity (PC-3 [28]) was 0%. The Activity (HeLa [29]) was 16.81% and the IC50 (MCF7) was 1720 nM.
